{"source": "patent US5112806A", "about": "“Antibiotic, mersacidin, a process for the preparation thereof and the use thereof as a pharmaceutical” (Hoechst Aktiengesellschaft, priority 1988, dated 1992)", "key": {"[1]": {"system": "S. aureus SG 511", "assay": "In vivo activity against S. aureus SG 511 infection in mice", "conditions": "S. aureus SG 511, 1.75 × 10^9 CFU/mouse", "procedure": "On subcutaneous administration in a dose of 9.37 and 25.00 mg/kg to laboratory mice infected experimentally with Staphylococcus aureus SG 511 and S. aureus 710 (resistant to methicillin), […].\nIn vivo activity of mersacidin against S. aureus SG 511\ninfection in mice compared with vancomycin.\nInoculation medium used: 1.75 × 10^9 CFU/mouse"}, "[2]": {"system": "S. aureus E 710 (MRSA)", "assay": "In vivo activity against S. aureus E 710 (MRSA) in mice", "conditions": "S. aureus E 710 (MRSA), 5 × 10^9 CFU/mouse (1 MLD)", "procedure": "On subcutaneous administration in a dose of 9.37 and 25.00 mg/kg to laboratory mice infected experimentally with Staphylococcus aureus SG 511 and S. aureus 710 (resistant to methicillin), […]. […]"}, "[3]": {"system": "S. aureus SG 511", "assay": "In vivo activity against S. aureus SG 511 abscess in rats", "conditions": "infecting dose 2 × 10^-9 CFU in 5% mucin under the skin, 50 mg/kg × 7 days", "procedure": "In vivo activity of mersacidin against S. aureus SG 511 abscess in rats, compared with vancomycin.\nInfecting dose : […] in 5% mucin, injected under the skin.\nTreatment: 50 mg/kg × 7 days"}, "[4]": {"system": "S. aureus SG 511", "assay": "In vivo activity against S. aureus SG 511 infection in mice", "conditions": "mice, S. aureus SG 511, 1.75 × 10^9 CFU/mouse"}}, "data": [{"smiles": "CN[C@H](CC(C)C)C(=O)N[C@H]1C(=O)N[C@@H](CC(N)=O)C(=O)N[C@H]2C(=O)N[C@H]3C(=O)N[C@H](C(=O)N[C@H](C(=O)O)c4cc(O)cc(O)c4-c4cc3ccc4O)[C@H](O)c3ccc(c(Cl)c3)Oc3cc2cc(c3O[C@@H]2O[C@H](CO)[C@@H](O)[C@H](O)[C@H]2O[C@H]2C[C@](C)(N)[C@H](O)[C@H](C)O2)Oc2ccc(cc2Cl)[C@H]1O", "note": "[Vancomycin, reference compound]", "values": [{"measurement": "Number of mice treated/cured", "setting": "[1]; 9.37 mg/kg × 3, s.c.", "value": "48/53"}, {"measurement": "percentage rate of cure", "setting": "[1]; 9.37 mg/kg × 3, s.c.", "value": 85, "unit": "%"}, {"measurement": "Approx. ED50", "setting": "[1]; s.c.", "value": "~7.20", "unit": "mg/kg × 3"}, {"measurement": "Approx. ED90", "setting": "[1]; s.c.", "value": "~9.37", "unit": "mg/kg × 3"}, {"measurement": "Number of mice treated/cured", "setting": "[2]; 6.25 mg/kg × 3, s.c.", "value": "0/11"}, {"measurement": "percentage rate of cure", "setting": "[2]; 6.25 mg/kg × 3, s.c.", "value": 0, "unit": "%"}, {"measurement": "Number of mice treated/cured", "setting": "[2]; 12.50 mg/kg × 3, s.c.", "value": "3/11"}, {"measurement": "percentage rate of cure", "setting": "[2]; 12.50 mg/kg × 3, s.c.", "value": 27, "unit": "%"}, {"measurement": "Number of mice treated/cured", "setting": "[2]; 25.00 mg/kg × 3, s.c.", "value": "14/21"}, {"measurement": "percentage rate of cure", "setting": "[2]; 25.00 mg/kg × 3, s.c.", "value": 67, "unit": "%"}, {"measurement": "Number of mice treated/cured", "setting": "[2]; 37.00 mg/kg × 3, s.c.", "value": "6/6"}, {"measurement": "percentage rate of cure", "setting": "[2]; 37.00 mg/kg × 3, s.c.", "value": 100, "unit": "%"}, {"measurement": "Approx. ED50", "setting": "[2]; s.c.", "value": "~18.94", "unit": "mg/kg × 3"}, {"measurement": "Approx. ED90", "setting": "[2]; s.c.", "value": "~32.01", "unit": "mg/kg × 3"}, {"measurement": "reduces bacterial counts by", "setting": "[3]", "value": 0.79, "unit": "log10 CFU/ml"}, {"measurement": "Number of mice treated/cured", "setting": "[4]; 3.12 mg/kg × 3, s.c.", "value": "2/41"}, {"measurement": "percentage rate of cure", "setting": "[4]; 3.12 mg/kg × 3, s.c.", "value": 5, "unit": "%"}, {"measurement": "Number of mice treated/cured", "setting": "[4]; 6.25 mg/kg × 3, s.c.", "value": "13/44"}, {"measurement": "percentage rate of cure", "setting": "[4]; 6.25 mg/kg × 3, s.c.", "value": 29, "unit": "%"}, {"measurement": "Number of mice treated/cured", "setting": "[4]; 12.5 mg/kg × 3, s.c.", "value": "59/61"}, {"measurement": "percentage rate of cure", "setting": "[4]; 12.5 mg/kg × 3, s.c.", "value": 97, "unit": "%"}, {"measurement": "Number of mice treated/cured", "setting": "[4]; 18.75 mg/kg × 3, s.c.", "value": "71/71"}, {"measurement": "percentage rate of cure", "setting": "[4]; 18.75 mg/kg × 3, s.c.", "value": 100, "unit": "%"}]}]}
